According to patent publication US10646494B2, “Heterocycle-substituted tetracyclic compounds and methods of use thereof for the treatment of viral diseases” (Merck Sharp & Dohme Corp., priority 2016, dated 2020):
Like-named read-outs stand apart in the source and are kept apart here.

Key:
Parameters in all cases: species or system Hepatitis C virus (HCV)
HCV replicon 1A = assay: Cell-based HCV replicon assay (Replicon Assay A), replicon 1A; details: replicon RNA by real time PCR, cells harvested on day 3
Method: (§1) To measure cell-based anti-HCV activity of compounds of the present invention, two complimentary assays were employed using various replicons. In the first assay (“Replicon Assay A”), replicon cells were seeded at 2000 cells/well in 384-well 384-well flat bottom tissue culture treated clear bottom plate (Corning 3707) in the presence of the test compound. Various concentrations of test compound, typically in 10 serial dilutions, were added to the assay mixture, with the starting concentration ranging from 333.3 nM to […]. The final concentration of DMSO was 0.5%. Fetal bovine serum was 5%, in the assay media. Cells were harvested on day 3 by removing media and washing the cells with a suitable wash buffer. The cells are lysed with the addition of 1× Qiagen lysis buffer (Cat #1062731). The replicon RNA level was measured using real time PCR (TaqMan® EZ RT-PCR, Applied Biosystems 403028) with the following primers and probes: […]
(§2) Cyclophilin RNA was used as endogenous control and was amplified in the same reaction as NS5B (multiplex PCR). The real-time RT-PCR reactions were run on ABI PRISM 7900HT Sequence Detection System using the following program: 50° C. for 2 minutes, 60° C. for 30 minutes, 95° C. for 5 minutes, 40 cycles of 94° C. for 20 sec, 55° C. for 1 minutes.
(§3) The amount of HCV replicon RNA per cell is quantified using a linear regression curve for a known nanogram (ng) amount of HCV replicon total RNA. This is established by plotting the Cycle Threshold values (Ct) from the Neo probe and primer set versus the log (ng) for each HCV replicon total RNA standard. The amount of HCV RNA for each replicon sample is calculated by taking the sample's Ct value, minus the line intercept, divided by the slope of the line. Similarly, the amount of Cyclophilin mRNA per cell is also quantified using a linear regression curve for a known nanogram (ng) amount of HCV replicon total RNA. Again, this is established by plotting the Cycle Threshold values (Ct) from the Cyclophilin probe and primer set versus the log (ng) for each HCV replicon total RNA standard.
(§4) Data was obtained for various compounds of the present invention using the methods described in the Example above, and is presented in the table immediately below. Data for replicons 1A, 1AY93H and 2B were obtained using Replicon Assay A and data for replicons 1B were obtained using Replicon Assay B.

HCV replicon 1B = assay: Cell-based HCV replicon assay (Replicon Assay B), replicon 1B; details: replicon RNA by real-time PCR, incubated for 3 days
Method: In an alternate assay (“Replicon Assay B”), 1000 cells were seeded per well in a 384-well collagen coated black plate from Greiner bio-one (Cat #781946) in 5% FBS. Inhibitors of this invention were added at 24 h post-seeding, and the plates were incubated for 3 days. Cells were subsequently lysed with Qiagen lysis buffer (Cat #1062731) to extract the RNA. HCV replicon RNA level was measured by real-time PCR using the RNA-to-CT kit from Applied Biosystem (Cat #4392656) and genotype-specific primers and probes. The amplicon was located within NSSB. The sequence of the PCR primers are as follows: 5B.2F, ATGGACAGGCGCCCTGA (SEQ. ID NO. 1); 5B.2R, […] (SEQ. ID NO. 2); the probe sequence was FAM-labeled CACGCCATGCGCTGCGG (SEQ. ID NO. 3). To detect genotype 1A the primer 1A F, TGCGGAACCGGTGAGTACA and 1A R, […] were used; the probe sequence was FAM-[…].
The real-time RT-PCR reactions were run on ABI PRISM 7900HT or Viia7 Sequence Detection System using the following program: 48° C. for 30 minutes, 95° C. for 10 minutes, 40 cycles of 95° C. for 15 sec, 60° C. for 1 minutes. The 50% effective concentration (EC50) was the drug concentration necessary to achieve an increase in the cycle threshold (CT) of 1 over the projected baseline CT.
as §4

HCV replicon 2B = assay: Cell-based HCV replicon assay (Replicon Assay A), replicon 2B; details: read-out: Replicon EC50 (nM) 2B, replicon 2B, replicon RNA by real time PCR, cells harvested on day 3
Method: as §1, §2, §3, §4

HCV replicon 1A Y93H = assay: Cell-based HCV replicon assay (Replicon Assay A), replicon 1AY93H; details: read-out: Replicon EC50 (nM) 1A Y93H, replicon 1A Y93H, replicon RNA by real time PCR, cells harvested on day 3
Method: as §1, §2, §3, §4

SMILES | EC50 (HCV replicon 1A; Hepatitis C virus, 72 h) [nM] | EC50 (HCV replicon 1B; Hepatitis C virus, 72 h) [nM] | EC50 (HCV replicon 2B; Hepatitis C virus, 72 h) [nM] | EC50 (HCV replicon 1A Y93H; Hepatitis C virus, 72 h) [nM] | EC50 (HCV replicon 1A) [nM] | EC50 (HCV replicon 2B) [nM] | EC50 (HCV replicon 1A Y93H) [nM] | EC50 (HCV replicon 1B) [nM]
COC(=O)N[C@H](C(=O)N1CCC[C@H]1c1ncc(-c2cc(F)c3c(c2)OC(c2cc(C(C)C)no2)n2c-3cc3cc(-c4cnc([C@@H]5CCCN5C(=O)[C@@H](NC(=O)OC)C(C)C)[nH]4)ccc32)[nH]1)C(C)C (mixture of isomers) [Compound 6] | 0.0017 | 0.0018 | 0.36 | 0.088 | – | – | – | –
COC(=O)N[C@H](C(=O)N1CCC[C@H]1c1ncc(-c2cc(F)c3c(c2)OC(c2csnn2)n2c-3cc3cc(-c4cnc([C@@H]5CCCN5C(=O)[C@@H](NC(=O)OC)C(C)C)[nH]4)ccc32)[nH]1)C(C)C (mixture of isomers) [Compound 37] | 0.004 | 0.0036 | 1.32 | 0.857 | – | – | – | –
COC(=O)N[C@H](C(=O)N1CCC[C@H]1c1ncc(-c2cc(F)c3c(c2)OC(c2nc4ccccc4o2)n2c-3cc3cc(-c4cnc([C@@H]5CCCN5C(=O)[C@@H](NC(=O)OC)C(C)C)[nH]4)ccc32)[nH]1)C(C)C (single isomer, unassigned) [Compound 20] | – | 0.0026 | – | – | 0.0023 | 0.32 | 0.075 | –
COC(=O)N[C@H](C(=O)N1CCC[C@H]1c1ncc(-c2cc(F)c3c(c2)OC(c2cnns2)n2c-3cc3cc(-c4cnc([C@@H]5CCCN5C(=O)[C@@H](NC(=O)OC)C(C)C)[nH]4)ccc32)[nH]1)C(C)C (single isomer, unassigned) [Compound 22] | 0.0015 | 0.0024 | – | – | – | 0.14 | 0.048 | –
COC(=O)N[C@H](C(=O)N1CCC[C@H]1c1ncc(-c2cc(F)c3c(c2)OC(c2cc(C(C)C)no2)n2c-3cc3cc(-c4cnc([C@@H]5CCCN5C(=O)[C@@H](NC(=O)OC)C(C)C)[nH]4)ccc32)[nH]1)C(C)C (single isomer, unassigned) [Compound 25] | 0.0012 | 0.0011 | – | – | – | 0.3 | 0.026 | –
COC(=O)N[C@H](C(=O)N1CCC[C@H]1c1ncc(-c2cc(F)c3c(c2)OC(c2cc(C4CC4)no2)n2c-3cc3cc(-c4cnc([C@@H]5CCCN5C(=O)[C@@H](NC(=O)OC)C(C)C)[nH]4)ccc32)[nH]1)C(C)C (single isomer, unassigned) [Compound 30] | 0.0012 | 0.0017 | – | – | – | 0.06 | 0.026 | –
COC(=O)N[C@H](C(=O)N1CCC[C@H]1c1ncc(-c2cc(F)c3c(c2)OC(c2nc(C(C)C)ns2)n2c-3cc3cc(-c4cnc([C@@H]5CCCN5C(=O)[C@@H](NC(=O)OC)C(C)C)[nH]4)ccc32)[nH]1)C(C)C (single isomer, unassigned) [Compound 31] | 0.0013 | – | 1.64 | – | – | – | 5.65 | –
COC(=O)N[C@H](C(=O)N1CCC[C@H]1c1ncc(-c2cc(F)c3c(c2)OC(c2nc(C(C)C)ns2)n2c-3cc3cc(-c4cnc([C@@H]5CCCN5C(=O)[C@@H](NC(=O)OC)C(C)C)[nH]4)ccc32)[nH]1)C(C)C (single isomer, unassigned) [Compound 32] | – | – | – | – | 0.0022 | 0.9 | 0.185 | –
CCc1nnc(C2Oc3cc(-c4cnc([C@@H]5CCCN5C(=O)[C@@H](NC(=O)OC)C(C)C)[nH]4)cc(F)c3-c3cc4cc(-c5cnc([C@@H]6CCCN6C(=O)C(NC(=O)OC)C(C)C)[nH]5)ccc4n32)s1 (single isomer, unassigned) [Compound 33] | – | 0.0026 | – | – | 0.0028 | – | – | –
COC(=O)N[C@H](C(=O)N1CCC[C@H]1c1ncc(-c2cc(F)c3c(c2)OC(c2coc(C4CC4)n2)n2c-3cc3cc(-c4cnc([C@@H]5CCCN5C(=O)[C@@H](NC(=O)OC)C(C)C)[nH]4)ccc32)[nH]1)C(C)C (single isomer, unassigned) [Compound 35] | 0.0034 | 0.003 | – | – | – | – | – | –
COC(=O)N[C@H](C(=O)N1CCC[C@H]1c1ncc(-c2cc(F)c3c(c2)OC(c2coc(C4CC4)n2)n2c-3cc3cc(-c4cnc([C@@H]5CCCN5C(=O)[C@@H](NC(=O)OC)C(C)C)[nH]4)ccc32)[nH]1)C(C)C (single isomer, unassigned) [Compound 36] | – | – | 0.11 | 0.102 | 0.0023 | – | – | 0.0029
COC(=O)N[C@H](C(=O)N1CCC[C@H]1c1ncc(-c2cc(F)c3c(c2)OC(c2cc4ccccn4n2)n2c-3cc3cc(-c4cnc([C@@H]5CCCN5C(=O)[C@@H](NC(=O)OC)C(C)C)[nH]4)ccc32)[nH]1)C(C)C (single isomer, unassigned) [Compound 39] | – | – | – | – | 0.0068 | 0.33 | 1.66 | –
COC(=O)N[C@H](C(=O)N1CCC[C@H]1c1ncc(-c2cc(F)c3c(c2)OC(c2cc4ccccn4n2)n2c-3cc3cc(-c4cnc([C@@H]5CCCN5C(=O)[C@@H](NC(=O)OC)C(C)C)[nH]4)ccc32)[nH]1)C(C)C (single isomer, unassigned) [Compound 40] | – | – | – | – | 0.0084 | 1.54 | 0.536 | –
COC(=O)N[C@H](C(=O)N1CCC[C@H]1c1ncc(-c2cc(F)c3c(c2)OC(c2cc4ccccn4n2)n2c-3cc3cc(-c4cnc([C@@H]5CCCN5C(=O)[C@@H](NC(=O)OC)C(C)C)[nH]4)ccc32)[nH]1)C(C)C (single isomer, unassigned) [Compound 41] | – | – | – | – | 0.0019 | 0.57 | 0.317 | –
COC(=O)N[C@H](C(=O)N1CCC[C@H]1c1ncc(-c2cc(F)c3c(c2)OC(c2cn4ccccc4n2)n2c-3cc3cc(-c4cnc([C@@H]5CCCN5C(=O)[C@@H](NC(=O)OC)C(C)C)[nH]4)ccc32)[nH]1)C(C)C (stereo partly shown) [Compound 14] | 0.0057 | 0.0078 | – | – | – | – | – | –
COC(=O)N[C@H](C(=O)N1CCC[C@H]1c1ncc(-c2ccc3c(c2)OC(c2ccc(C)o2)n2c-3cc3cc(-c4cnc([C@@H]5CCCN5C(=O)[C@@H](NC(=O)OC)C(C)C)[nH]4)ccc32)[nH]1)C(C)C (stereo partly shown) [Compound 42] | 0.0309 | – | 6.16 | 5.01 | – | – | – | –
COC(=O)N[C@H](C(=O)N1CCC[C@H]1c1ncc(-c2ccc3c(c2)OC(c2ccc(C)o2)n2c-3cc3cc(-c4cnc([C@@H]5C[C@@H](F)CN5C(=O)[C@@H](NC(=O)OC)C(C)C)[nH]4)ccc32)[nH]1)C(C)C (stereo partly shown) [Compound 43] | 0.0281 | – | 0.06 | 1.02 | – | – | – | –
